Results from patent publication US11318149B2, “Compositions and methods for inhibiting biofilm-forming bacteria” (Board of Trustees of Michigan State University, priority 2018, dated 2022).
≈ marks a conversion by molar mass, not a printed value. Where two headings read alike, the source gives them in different places.

What was measured:
Format in all cases: cell-based, Pseudomonas aeruginosa
24-hr old PAO1 biofilms = test: Biofilm susceptibility testing (MBEC assay, BacTiter-Glo); conditions: for onset of action: time killing curves, antibiotic alone or with oxyclozanide (100 μM); for percent of cells within 24-hr biofilms killed / fold reduction of viable cells versus untreated biofilm / percent of P. aeruginosa cells in the biofilm killed / number of viable cells within the biofilms (BacTiter-Glo), mean: 6-hrs; for fold reduction of viable cells versus untreated biofilm / percent of P. aeruginosa cells in the biofilm killed: oxyclozanide 100 μM, tobramycin 500 μM, gentamicin/streptomycin/tetracycline 100 μM, alone or in combination; for time killing curve result at 2 and 4 hrs, single agent: oxyclozanide or tobramycin alone; for time required to show antimicrobial activity: 24-hr biofilms, melittin 100 μM, tobramycin 400 μM; for EC50: Pseudomonas aeruginosa, read-out: half effective concentration 50 (EC50) of tobramycin
Description: (§1) To measure antimicrobial susceptibility of biofilms, the MBEC™ assay was used (Innovotech) as previously described. This assay consists of a lid with 96 polystyrene pegs used to grow biofilms. Briefly, an overnight culture was washed and diluted to an OD600 of 0.001 and seeded into a MBEC™ plate. To grow biofilms, the plate was then incubated for 24-hrs at 35° C. in a humidified chamber with agitation at 150 RPM. After 24-hrs, the lid was then transferred to a 96-well plate filled with DPBS and washed for 5-mins to remove non-adherent cells. The lid was transferred to the 96-well treatment plate and incubated for the indicated time points at 35° C. without agitation. After the incubation, the MBEC™ lid was washed and transferred to a black 96-well ViewPlate (PerkinElmer) filled with BacTiter-Glo™ to enumerate cell viability and then luminescence was measured using a EnVison Multilabel Plate Reader (PerkenElmer, Waltham, Mass.). Percent killing was calculated as:
[formula] Dose response curves were performed in the same manner. Crystal Violet Staining
Time killing curves were performed by growing 24-hr old biofilms on MBEC™ plates as previously described. Briefly, 100 μM of oxyclozanide and 500 μM of tobramycin were used to test for synergy at high concentrations of tobramycin, mirroring what is done clinically. The peg-lid was briefly washed in DPBS to remove non-adherent cells and transferred to a treatment plate and incubated at 35° C. for 8-hrs. At 0, 2, 4, 6, and 8-hrs pegs were collected and BacTiter-Glo™ was used to determine cell viability.

[1] = tested on: P. aeruginosa planktonically grown cells; test: microbe, parasite or virus in culture
Description: To measure antimicrobial susceptibility of planktonic cells, MICs were determined using the broth microdilution technique, as described previously. Briefly, microdilutions were made in a 96-well plate in 1% MHB diluted in Dulbecco's Phosphate Buffered Saline with magnesium and calcium (DPBS, Sigma-Aldrich). Cells were combined with the serial dilutions in the 96-well plate at a concentration of ˜[…] CFU/mL in 10% MHB. The plates were then incubated for 24-hrs at 35° C. in a humidified chamber with agitation at 150 RPM. MIC breakpoints were chosen as the minimum concentration in which no turbidity greater than background was measured (absorbance at 595 nm), using a SpectraMax M5 microplate spectrophotometer system (Molecular Devices Sunnyvale, Calif.

P. aeruginosa biofilms = test: Crystal violet staining of biofilm biomass (biofilm dispersal); conditions: for effect on biofilm biomass / dispersal (crystal violet): six hour exposure, 50 μM-400 μM, alone and in combination
Description: To study biofilm dispersal under static conditions, crystal violet staining was performed as previously described. Briefly, 24-hr old biofilms formed on MBEC™ plates, as described above, were stained with crystal violet after a 6-hr incubation with oxyclozanide and tobramycin.
One possible mechanism by which oxyclozanide enhances tobramycin activity is by inducing biofilm dispersal. To test this, the ability of oxyclozanide and tobramycin to disperse P. aeruginosa biofilms was examined using crystal violet staining of the biofilm biomass after six hour exposure to dilutions of oxyclozanide or tobramycin alone and in combination from 50 μM-400 μM (FIG. 6).

[2] = tested on: P. aeruginosa clinical isolates from CF patients grown in biofilms; test: Biofilm susceptibility of CF clinical isolates (MBEC, BacTiter-Glo); conditions: 100 μM oxyclozanide; 6-hrs
Description: 24-hr old biofilms grown on MBEC plates were treated with oxyclozanide (100 μM), or tobramycin (500 μM), alone and in combination for 6-hrs. The number of viable cells within the biofilms were quantified by BacTiter-Glo™. The assay was performed three times in triplicate. The results represent means plus the SEM. A one-way ANOVA followed by Bonferroni's multiple comparison post-hoc test was used to determine statistical significance compared to tobramycin alone (*, p<0.05, NS, not significant).
as §1, with “The lid was transferred to the 96-well treatment plate and incubated for the indicated time points at 35° C. without agitation.” left out, “as: […]” for “as:”

[3] = tested on: P. aeruginosa cells within biofilms; test: TO-PRO-3 staining for permeabilization of biofilm cells; conditions: melittin 100 μM, 2 hours
Description: 24-hr old biofilms were treated with melittin (100 μM), or tobramycin (400 μM), alone and in combination for 2 hours. […] Percent values indicate the average relative abundance of events within each gate normalized to the total number of events analyzed, excluding artifacts, aggregates and debris. The experiment was performed two separate times in duplicate. The results are percent averages plus the SEM. A one-way ANOVA followed by Bonferroni's multiple comparison post-hoc test was used to determine statistical significance between tobramycin versus melittin, tobramycin versus the combination, and melittin versus the combination(*, p<0.05).

[4] = Pseudomonas aeruginosa, read-out: Minimum Inhibitory Concentrations (MIC), +Melittin
[5] = Pseudomonas aeruginosa, read-out: Minimum Inhibitory Concentrations (MIC), Alone

Compound	onset of action (24-hr old PAO1 biofilms) [h]	Minimum Inhibitory Concentrations (MIC), Alone [1] [µM]	MIC [1, 4] [µM]	MIC [1, 5] [µM]	fold reduction of viable cells versus untreated biofilm (24-hr old PAO1 biofilms)	percent of P. aeruginosa cells in the biofilm killed (24-hr old PAO1 biofilms) [%]	time killing curve result at 2 and 4 hrs, single agent (24-hr old PAO1 biofilms)	effect on biofilm biomass / dispersal (crystal violet) (P. aeruginosa biofilms)	time required to show antimicrobial activity (24-hr old PAO1 biofilms) [h]	also measured
gentamicin	4	6.25 to 12.5								MIC ([1]; +Melittin, read-out: Minimum Inhibitory Concentrations (MIC), +Melittin): 12.5 µM
[H]/N=C(/N)N[C@H]1[C@H](O)[C@@H](O)[C@H](O[C@@H]2O[C@@H](C)[C@](O)(C=O)[C@H]2O[C@@H]2O[C@@H](CO)[C@H](O)[C@@H](O)[C@@H]2NC)[C@@H](N/C(N)=N\[H])[C@@H]1O [streptomycin]			25 to 50 (≈ 14.5 to 29.1 µg/mL)	25 to 50 (≈ 14.5 to 29.1 µg/mL)						delay in killing activity against 24-hr old biofilms (24-hr old PAO1 biofilms; antibiotic alone, 100 μM): did not show a delay
O=C(Nc1cc(Cl)cc(Cl)c1O)c1c(O)c(Cl)cc(Cl)c1Cl [oxyclozanide]					about 2 fold	44	no significant killing	did not impact biofilm biomass		percent of cells within 24-hr biofilms killed (24-hr old PAO1 biofilms; 400 μM of each agent): ~80%; percent of cells within 24-hr biofilms killed (24-hr old PAO1 biofilms; oxyclozanide alone between 25 and 200 μM): 20-40%; effect on the minimum inhibitory concentration of tobramycin, gentamicin, streptomycin, or tetracycline ([1]; planktonically grown cells): no effect; sensitivity of six clinical isolates to treatment alone [2]: modest sensitivity
NC[C@H]1O[C@H](O[C@H]2[C@H](O)[C@@H](O[C@H]3O[C@H](CO)[C@@H](O)[C@H](N)[C@H]3O)[C@H](N)C[C@@H]2N)[C@H](N)C[C@@H]1O [tobramycin]	6		3.12 to 6.25 (≈ 1.46 to 2.92 µg/mL)	3.12 to 6.25 (≈ 1.46 to 2.92 µg/mL)	about 2 fold	56	increase in cell number	significantly reduced biofilm biomass	6	EC50 (24-hr old PAO1 biofilms; PAO1, in combination with melittin): 16 µM; EC50 (24-hr old PAO1 biofilms; PAO1, tobramycin alone): 46 µM; number of viable cells within the biofilms (BacTiter-Glo), mean (24-hr old PAO1 biofilms; Tobramycin 50 μM, Melittin 0 μM): 1.82E5; number of viable cells within the biofilms (BacTiter-Glo), mean (24-hr old PAO1 biofilms; Tobramycin 100 μM, Melittin 0 μM): 1.91E5; number of viable cells within the biofilms (BacTiter-Glo), mean (24-hr old PAO1 biofilms; Tobramycin 200 μM, Melittin 0 μM): 2.27E5
CC[C@H](C)[C@H](NC(=O)CN)C(=O)NCC(=O)N[C@@H](C)C(=O)N[C@H](C(=O)N[C@@H](CC(C)C)C(=O)N[C@@H](CCCCN)C(=O)N[C@H](C(=O)N[C@@H](CC(C)C)C(=O)N[C@H](C(=O)N[C@H](C(=O)NCC(=O)N[C@@H](CC(C)C)C(=O)N1CCC[C@H]1C(=O)N[C@@H](C)C(=O)N[C@@H](CC(C)C)C(=O)N[C@H](C(=O)N[C@@H](CO)C(=O)N[C@@H](Cc1c[nH]c2ccccc12)C(=O)N[C@H](C(=O)N[C@@H](CCCCN)C(=O)N[C@@H](CCCNC(=N)N)C(=O)N[C@@H](CCCCN)C(=O)N[C@@H](CCCNC(=N)N)C(=O)N[C@@H](CCC(N)=O)C(=O)N[C@@H](CCC(N)=O)C(N)=O)[C@@H](C)CC)[C@@H](C)CC)[C@@H](C)O)[C@@H](C)O)C(C)C)C(C)C [melittin]		62.5 to 200							2	number of viable cells within the biofilms (BacTiter-Glo), mean (24-hr old PAO1 biofilms; Tobramycin 0 μM, Melittin 12.5 μM): 5.18E5; number of viable cells within the biofilms (BacTiter-Glo), mean (24-hr old PAO1 biofilms; Tobramycin 0 μM, Melittin 25 μM): 4.22E5; number of viable cells within the biofilms (BacTiter-Glo), mean (24-hr old PAO1 biofilms; Tobramycin 0 μM, Melittin 50 μM): 2.87E5; number of viable cells within the biofilms (BacTiter-Glo), mean (24-hr old PAO1 biofilms; Tobramycin 0 μM, Melittin 100 μM): 2.51E4; biofilm dispersal (crystal violet) (P. aeruginosa biofilms; 24-hr biofilms treated for 6-hrs): significant biofilm dispersal; permeabilization of cells (TO-PRO-3) [3]: causes permeabilization
